From patent US9764031B2 (priority 2010, dated 2017)

Test system: IL-12
Parameters: species or system mice
Conditions: mouse, in vivo

**Q.** For `CCOCc1nc2c(N)nc3ccccc3c2n1CC(C)(C)O` [R848, Resiquimod], which “peak level of systemic IL-12, free agonist higher than NC-coupled agonist” value is on record?
**A.** 30 fold
